Test results taken from patent US20070259435A1, “Intravenous Drug Administration and Blood Sampling Model in the Awake Rat” (priority 2004, published 2007).
Counter-ions that a name gives are not always drawn. Like-named read-outs stand apart in the source and are kept apart here.

Experiments:
in vivo [1] = conditions: male, Sprague-Dawley, rat, single oral 5 mg/kg, Mean
Excerpt: (§1) Male SPF Sprague-Dawley rats (200-300 g, Charles River, Germany) were used throughout the study. Animals were allowed to acclimatize for one week prior to each part of the study. Tap water and food were available ad libitum.
(§2) The plasma concentration profile and major PK parameters of different chemical structures were investigated following oral administration. Blood samples were taken from the tail vein with either the multiple or single sampling method.
(§3) For both methods, the same formulation per compound was used to ensure any differences in results were not due to formulation effects. Test compounds JNJ1 (a farnesyl transferase compound), JNJ2 (galantamine hydrobromide) and JNJ3 (a CRF antagonist) were formulated in demineralized water or a 10% hydroxypropyl- -β cyclodextrin (HP- - ? CD) solution at final concentrations of between 0.25 and 1 mg/ml. All formulations were stored at room temperature, protected from light and analysed quantitatively. Animals were orally dosed by gastric intubation using a volume of 10 ml/kg.
After dosing the compound, blood samples were taken at the desired time points. For the single sampling method, three animals per time point were sacrificed by decapitation and blood was collected by exsanguination into 10 ml B-D Sterile EDTA K3 Vacutainer tubes. For the multiple sampling technique 0.3 ml venous blood was repeatedly collected from the tail vein as described above. […] Plasma samples were analysed for the appropriate compound using individual qualified research LC-MS/MS methods as described in section 2.4.
For all compounds, individual calibration curves were constructed in blank EDTA rat plasma (covering the expected concentration range). […] After sample preparation, the (reconstituted) residues were pipetted in polypropylene auto sampler vials and analysed using individual qualified research methods.
Aliquots of the residues were analysed using multiple reaction monitoring (MRM) liquid chromatography coupled to tandem mass spectrometry (LC-MS/MS) (API-3000 or 4000, Applied Biosystems, Canada). Chromatographic separation was obtained on commercial base deactivated C-18 columns of different brands, depending on the chromatographic behaviour of the compounds to be analysed. […] Final concentrations were calculated by interpolation from the calibration curves response, using a linear regression model. […]
A limited PK analysis was performed using WinNonlin™ Professional (Version 3.3). […] Average values were then calculated to compare the multiple and the single sampling method. The PK parameters calculated were observed maximum plasma concentration (Cmax), the time to reach the maximum plasma concentration (Tmax), plasma half-life (t1/2) and exposure of the compound calculated by the area under the curve (AUClast and AUCinf). […]

in vivo [2] = conditions: male, Sprague-Dawley, rat, po, 5 mg/kg, single oral 5 mg/kg, multiple sampling
Excerpt: as §1
For multiple blood sampling via the tail vein the animals were placed in a rodent cylindrical restrainer developed by the Scientific Instrument Division (Johnson & Johnson, Pharmaceutical Research and Development, division of Janssen Pharmaceutica). The rat's tail was warmed using an infra red lamp to facilitate the sampling. Venous blood was collected by a 27 G needle into Multivette 600KE tubes containing EDTA (Sarstedt, Germany).
as §2, §3
After dosing the compound, blood samples were taken at the desired time points. For the single sampling method, three animals per time point were sacrificed by decapitation and blood was collected by exsanguination into 10 ml B-D Sterile EDTA K3 Vacutainer tubes. For the multiple sampling technique 0.3 ml venous blood was repeatedly collected from the tail vein as described above. For each compound, 3 rats were used for a complete plasma concentration time profile. Plasma samples were analysed for the appropriate compound using individual qualified research LC-MS/MS methods as described in section 2.4.
For all compounds, individual calibration curves were constructed in blank EDTA rat plasma (covering the expected concentration range). Independent quality control samples (QC) were prepared in rat EDTA plasma at four concentration levels in duplicate, covering the entire calibration range. The study samples, calibration and QC samples were extracted using a generic sample preparation method. After sample preparation, the (reconstituted) residues were pipetted in polypropylene auto sampler vials and analysed using individual qualified research methods.
Aliquots of the residues were analysed using multiple reaction monitoring (MRM) liquid chromatography coupled to tandem mass spectrometry (LC-MS/MS) (API-3000 or 4000, Applied Biosystems, Canada). Chromatographic separation was obtained on commercial base deactivated C-18 columns of different brands, depending on the chromatographic behaviour of the compounds to be analysed. The mass spectrometers were operated in the TurbolonSpray TM mode (positive ion electrospray ionisation). For each compound the mass spectrometer was optimised to measure a selective parent-daughter transition. Integration of the chromatographic peaks was performed using the Analist software version 1.2 (Applied Biosystem, Canada). Final concentrations were calculated by interpolation from the calibration curves response, using a linear regression model. Both accuracy and precision were within expectations for all compounds, allowing accurate PK calculations
A limited PK analysis was performed using WinNonlin™ Professional (Version 3.3). For the single sampling method, a non-compartmental data analysis was carried out on the mean plasma concentration profile (n=3/time point). For the multiple sampling method, a non-compartmental data analysis was carried out on the plasma concentration time profiles obtained from each animal (n=3). […]

- AUC(0-inf) (in vivo [1]; read-out: AUCinf (extrapolated exposure)): 1.44 µg·h/mL
- AUC(0-t) (in vivo [1]; read-out: AUClast (observed exposure)): 1.38 µg·h/mL
- Cmax (in vivo [1]; read-out: Cmax (maximum plasma concentration)): 0.155 µg/mL
- half-life (in vivo [1]; read-out: t1/2 (half life) (converted)): 4.93 h
- AUC(0-inf) (in vivo [2]; Mean, read-out: AUCinf (extrapolated exposure)): 1.18 µg·h/mL
- AUC(0-t) (in vivo [2]; Mean, read-out: AUClast (observed exposure)): 1.1 µg·h/mL
- Cmax (in vivo [2]; Mean, read-out: Cmax (maximum plasma concentration)): 0.113 µg/mL
- half-life (in vivo [2]; Mean, read-out: t1/2 (half life) (converted)): 5.75 h
- AUC(0-inf) (in vivo [2]; Rat 1, read-out: AUCinf (extrapolated exposure)): 1.44 µg·h/mL
- AUC(0-t) (in vivo [2]; Rat 1, read-out: AUClast (observed exposure)): 1.31 µg·h/mL
- Cmax (in vivo [2]; Rat 1, read-out: Cmax (maximum plasma concentration)): 0.135 µg/mL
- half-life (in vivo [2]; Rat 1, read-out: t1/2 (half life) (converted)): 6.81 h
- AUC(0-inf) (in vivo [2]; Rat 2, read-out: AUCinf (extrapolated exposure)): 1.18 µg·h/mL
- AUC(0-t) (in vivo [2]; Rat 2, read-out: AUClast (observed exposure)): 1.12 µg·h/mL
- Cmax (in vivo [2]; Rat 2, read-out: Cmax (maximum plasma concentration)): 0.0963 µg/mL
- half-life (in vivo [2]; Rat 2, read-out: t1/2 (half life) (converted)): 4.89 h
- AUC(0-inf) (in vivo [2]; Rat 3, read-out: AUCinf (extrapolated exposure)): 0.913 µg·h/mL
- AUC(0-t) (in vivo [2]; Rat 3, read-out: AUClast (observed exposure)): 0.866 µg·h/mL
- Cmax (in vivo [2]; Rat 3, read-out: Cmax (maximum plasma concentration)): 0.108 µg/mL
- half-life (in vivo [2]; Rat 3, read-out: t1/2 (half life) (converted)): 5.65 h
SMILES: COc1ccc2c3c1O[C@H]1C[C@@H](O)C=C[C@@]31CCN(C)C2 [JNJ2, galantamine hydrobromide]
